From patent publication US6693123B2 (University of Pittsburgh, priority 1995, dated 2004)
Structures can show the parent of a compound that is named as a salt. Where two headings read alike, the source gives them in different places.

Molecular target: T1, Rat brain protein farnesyltransferase (Rattus norvegicus, UniProt Q02293+Q04631)
T1 construct: The enzyme is purified according to Reiss, Y., et al., Cell, 62: 81-88 (1990), utilizing steps one through three; from tissue; host or cells: rat brain
Experiment: In vitro inhibition of protein farnesyltransferase, Amersham scintillation proximity assay with biotin-K Ras B fragment
Type: biochemical
Conditions: for inhibition at 1 µM: read-out: % inhibition at 1 × 10^−6 M; for inhibition at 0.1 µM: read-out: % inhibition at 1 × 10^−7 M

[1] = Inhibition of farnesyltransferase, compound at 1 × 10^−6 M (Table 2)
[2] = read-out: % inhibition at 0.01 μM
[3] = Inhibition of farnesyltransferase, compound at 1 × 10^−7 M (Table 3)

Compound | inhibition at 1 µM [1] | other results
CS(=O)(=O)CC[C@H](NC(=O)c1ccc(NC(=O)c2cccnc2)cc1-c1ccccc1)C(=O)O [Example 203, [4-(3-Pyridylcarbonylamino)-2-phenylbenzoyl]-2-amino-4-(methylsulfonyl)butanoic Acid] | 76% | –
CSCC[C@H](NC(=O)c1ccc(CN(Cc2cccnc2)c2cc(F)cc(F)c2)cc1-c1ccccc1C)C(=O)O [Example 1287, N-[4-N-(N-3,5-Difluorophenyl-N-(3-pyridylmethyl)aminomethyl)-2-(2-methylphenyl)benzoyl]methionine Lithium Salt] | – | inhibition at 0.01 µM [2]: 95%
COC(=O)[C@H](CCSC)NC(=O)c1ccc(COc2cccnc2)cc1-c1ccccc1C [Example 307, [4-(3-Pyridyloxymethyl)-2-(2-methylphenyl)benzoyl]methionine Methyl Ester] | 82% | –
CC(C)C[C@H](NC(=O)c1ccc(NCc2cnc[nH]2)cc1-c1cccc2ccccc12)C(=O)O [Example 388, 4-[N-(1H-Imidazol-4-yl)methylamino-2-(1-naphthyl)benzoyl]leucine] | – | inhibition at 10 µM (Inhibition of farnesyltransferase, compound at 1 × 10^−5 M (Table 1)): > 50%
CSCC[C@H](NC(=O)c1ccc(C=Cc2cnccc2O)cc1-c1ccccc1C)C(=O)O [Example 1039, N-[4-(2-(4-Hydroxypyridin-3-yl)ethenyl)-2-(2-methylphenyl)benzoyl]methionine Lithium Salt] | – | inhibition at 0.01 µM [2]: 89%
CSCC[C@H](NC(=O)c1ccc(CCc2cncc3ccccc23)cc1-c1ccccc1C)C(=O)O [Example 492, N-[4-(2-Isoquinolin-4-ylethyl)-2-(2-methylphenyl)benzoyl]methionine Lithium Salt] | – | inhibition at 0.1 µM: 95%
CSCC[C@H](NC(=O)c1ccc(CN(Cc2ccccc2)c2cncc(F)c2)cc1-c1ccccc1C)C(=O)O [Example 410, [4-(N-Benzyl-N-3-(5-fluorolpyridyl)aminomethyl)-2-(2-methylphenyl)benzoyl]methionine] | – | inhibition at 0.01 µM (Inhibition of farnesyltransferase, compound at 1 × 10^−8 M (Table 4), read-out: % inhibition at 1 × 10^−8 M): 94%
CSCC[C@H](NC(=O)c1ccc(CN(C(=O)c2ccccc2)c2cccnc2)cc1-c1ccccc1C)C(=O)O [Example 569, N-[4-N-Benzoyl-N-pyrid-3-ylaminomethyl-2-(2-methylphenyl)benzoyl]methionine] | – | % inhibition at 1 × 10^−6 M [1]: 91%
CSCC[C@H](NC(=O)c1ccc(CCc2cnccc2C(O)c2ccccc2)cc1-c1ccccc1C)C(=O)O (stereo partly drawn) [Example 485, N-[4-(2-(4-α-Hydroxybenzyl)pyrid-3-ylethyl)-2-(2-methylphenyl)benzoyl]methionine Lithium Salt] | – | inhibition at 0.1 µM [3]: 96%
CSCCC(OC(=O)c1ccc(/C=C/c2cccnc2)cc1-c1ccccc1C)C(=O)O (stereo not shown) [Example 814, 2-[4-(2-Pyrid-3-ylethen-1-yl)-2-(2-methylphenyl)benzoyl]oxy-4-methylthiobutanoic Acid] | – | inhibition at 0.1 µM [3]: 81%
CSCC[C@H](NC(=O)c1ccc(COc2cccnc2)cc1-c1ccccc1)C(=O)NO [Example 249, [4-(3-Pyridyloxymethyl)-2-phenylbenzoyl]methionine Hydroxamic Acid] | 77% | –
CSCC[C@H](NC(=O)c1ccc(C(O[Si](C)(C)C(C)(C)C)c2ccncc2)cc1-c1ccccc1)C(=O)O (stereo partly shown) [Example 297, [4-(4-Pyridyl-t-butyldimethylsilyloxymethyl)-2-phenylbenzoyl]methionine Sodium Salt] | – | inhibition at 1 µM: 65%
COC(=O)[C@H](CCSC)NC(=O)c1ccc(/C=C/c2cccnc2)cc1-c1ccccc1 [Example 210, {4-[2-(Pyrid-3-yl)ethenyl]-2-phenylbenzoyl}methionine Methyl Ester] | 5% | –
COC(=O)[C@H](CCSC)NC(=O)c1ccc(NCc2cccnc2)cc1-c1ccccc1 [Example 201, [4-(3-Pyridylmethylamino)-2-phenylbenzoyl]methionine Methyl Ester] | 63% | –
COC(=O)[C@H](CCSC)NC(=O)c1ccc(CCc2cccnc2)cc1-c1ccccc1 [Example 212, {4-[2-(Pyrid-3-yl)ethyl]-2-phenylbenzoyl}methionine Methyl Ester] | 12% | –
CSCC[C@H](NC(=O)c1ccc(/C=C/c2cnccc2N(C)C)cc1-c1ccccc1)C(=O)O [Example 214, {4-[2-(4-Dimethylaminopyrid-3-yl)ethenyl]-2-phenylbenzoyl}methionine Sodium Salt] | – | inhibition at 1 µM: 97%
O=C(N[C@@H](CCO)C(=O)O)c1ccc(NCc2cccnc2)cc1-c1ccccc1 [Example 191, Lithium 4-(3-Pyridylmethylamino)-2-phenylbenzoyl-L-homoserinate] | – | inhibition at 1 µM: 28%

More lines, main results first:

inhibition at 1 µM [1] | Compound | other results
62% | COC(=O)[C@H](CCSC)NC(=O)c1ccc(NCc2cccnc2)cc1-c1ccccc1C [Example 308, [4-(3-Pyridylmethylamino)-2-(2-methylphenyl)benzoyl]methionine Methyl Ester] | –
97% | CCc1cc(C(=O)N[C@@H](CCSC)C(=O)O)c(-c2ccccc2C)cc1COc1cccnc1 [Example 918, N-[5-Ethyl-4-(pyrid-3-yloxymethyl)-2-(2-methylphenyl)benzoyl]methionine] | –
91% | CSCC[C@H](NC(=O)c1cc(-c2cc(Cl)cc(Cl)c2)c(COc2cccnc2)cc1-c1ccccc1C)C(=O)O [Example 345] | –
> 50% | CSCC[C@H](NC(=O)c1ccc(NCc2ncc[nH]2)cc1-c1ccccc1C)C(=O)O [Example 386, 4-[N-(1-H-Imidazole-2-yl)methylamino-2-(2-methylphenyl)benzoyl]methionine] | –
98% | CSCC[C@H](NC(=O)c1ccc(CN(Cc2ccccc2)c2cccnc2)cc1-c1ccccc1C)C(=O)O [Example 407, [4-(N-Benzyl-N-3-pyridylaminomethyl)-2-(2-methylphenyl)benzoyl]methionine] | –
